From ChEMBL document CHEMBL6182885, “Discovery, Biological Activity, and Biosynthesis of Pinocicolin A, an Antibiotic Isocyanide Metabolite Produced by Penicillium pinophilum” (J Nat Prod, 2025)

What was measured:
Jonesia denitrificans = assay: Antibacterial activity against Listeria denitrificans NBRC15587 incubated overnight by disc diffusion assay; assay type: functional
Pseudomonas aeruginosa = assay: Antibacterial activity against Pseudomonas aeruginosa NBRC12689 incubated overnight by disc diffusion assay; assay type: functional
Staphylococcus aureus = assay: Antibacterial activity against Staphylococcus aureus NBRC13276 incubated overnight by disc diffusion assay; assay type: functional
Escherichia coli = assay: Antibacterial activity against Escherichia coli NEB10beta incubated overnight by disc diffusion assay; assay type: functional
[1] = system: Brevibacillus choshinensis; assay: Antibacterial activity against Brevibacillus SP3 incubated overnight by disc diffusion assay; assay type: functional
[2] = Metal chelating activity assessed as CAS-Cu complex formation in presence of CAS/CuCl2 by UV-Vis spectrophotometric analysis

SMILES	MIC (Jonesia denitrificans) [µg]	MIC (Pseudomonas aeruginosa) [µg]	MIC (Staphylococcus aureus) [µg]	MIC (Escherichia coli) [µg]	MIC [1] [µg]	EC50 [2] [µM]
[C-]#[N+][C@H](C(=O)OC[C@@H](O)[C@@H](O)[C@H](O)[C@H](O)COC(=O)[C@@H]([N+]#[C-])C(C)C)C(C)C	5	>100	5	>100	5	8
[C-]#[N+][C@H](C(=O)OC[C@@H](O)[C@@H](O)[C@H](O)[C@H](O)COC(=O)[C@@H](NC=O)C(C)C)C(C)C	>100	>100	>100	>100	>100	26.9
CC(C)[C@H](NC=O)C(=O)OC[C@@H](O)[C@@H](O)[C@H](O)[C@H](O)COC(=O)[C@@H](NC=O)C(C)C	>100	>100	>100	>100	>100	
